The values below come from PMC9145765, “Identification and Molecular Characterization of the Operon Required for L-Asparagine Utilization in Corynebacterium glutamicum” (Microorganisms, 2022).

Series [1] addresses T1, AnsR (Corynebacterium glutamicum, UniProt A0AB72VEC9).
T1 construct: gene cgR_2807; His-tagged (pColdI, plasmid pCRC667), E. coli BL21(DE3), Ni-NTA; annotated start codon is wrong, true start is the ATG 12 nt downstream
T1 sequence (A0AB72VEC9 5-238 limits assumed): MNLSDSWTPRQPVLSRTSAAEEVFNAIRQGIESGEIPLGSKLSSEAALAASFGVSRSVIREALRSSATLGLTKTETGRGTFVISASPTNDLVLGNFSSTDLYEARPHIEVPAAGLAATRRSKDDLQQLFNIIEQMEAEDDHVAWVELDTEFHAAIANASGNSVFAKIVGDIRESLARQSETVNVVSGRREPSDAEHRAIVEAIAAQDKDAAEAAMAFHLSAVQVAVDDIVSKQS
Nature of the series: EMSA, release of promoter DNA from His-tagged AnsR. As to conditions: effector abolishing operator DNA binding; […] L-Asn preincubated […] min; pH […]; room temperature. For orientation: A gel shift assay detects complexes by their altered migration in electrophoresis.

In series [2] the test system is T2, AnsR (Corynebacterium glutamicum R (JCM 18229)), ORF:3b2fc73c.
T2 sequence: T1 sequence (A0AB72VEC9 5-238 limits assumed)
Nature of the series: EMSA. As to conditions: 20 mM Tris-HCl pH 8.0, 100 mM NaCl, 3 mM MgCl2, 5 mM CaCl2, 0.1 mM EDTA, 0.1 mM DTT, 10% glycerol, 0.15 mg/mL BSA, room temperature, 25 min; 5% PAGE in 0.5x ….

With `NC(=O)C[C@H](N)C(=O)O` [L-Asn], the “EMSA, release of promoter DNA from His-tagged AnsR” value in series [1] is recorded as “L-Asn inhibited the binding of AnsR to the site”.

As to “GTTCATGGTGAACATCATGCATTGTGATGCACCTTACGTCAAGGACTTCTTGTTAAGTGATTCTCTTTGTGCAGGTTATGGCAATAAAAAGAACCTGCCCCGAAAAGGGAACAGGCTCTTTTTTCGGTAAGGGTTAAGCCAATGAAGCAAGTCCGAACATTGCGTAAGCCATGATGAAACCAACGATGGCAATACAGGTCTGGTTCACGGTCCAG (double strand) [probe -209 to +6]”, in series [2], the binding result is given as “no binding”.
